Experimental data from publication PMC6630832, “3-Vinylazetidin-2-Ones: Synthesis, Antiproliferative and Tubulin Destabilizing Activity in MCF-7 and MDA-MB-231 Breast Cancer Cells” (Pharmaceuticals, 2019).
Where two headings read alike, the source gives them in different places.

Experiments:
[1] = test system: LOX IMVI; assay: NCI60 screen (SRB), Melanoma; type: cell-based; conditions: Homo sapiens
[2] = test system: NCI/ADR-RES; assay: NCI60 screen (SRB), Ovarian cancer; type: cell-based; conditions: Homo sapiens
[3] = test system: MDA-MB-231/ATCC; assay: NCI60 screen (SRB), Breast cancer; type: cell-based, human; conditions: for IC50: value from NCI (footnote b)
[4] = test system: SF539; assay: NCI60 screen (SRB), CNS Cancer; type: cell-based; conditions: Homo sapiens, SF-539
[5] = test system: SK-OV-3; assay: NCI60 screen (SRB), Ovarian cancer; type: cell-based; conditions: Homo sapiens
[6] = test system: CAKI-1; assay: NCI60 screen (SRB), Renal cancer; type: cell-based; conditions: Homo sapiens
[7] = test system: SN12C; assay: NCI60 screen (SRB), Renal cancer; type: cell-based; conditions: Homo sapiens
[8] = test system: K-562; assay: NCI60 screen (SRB), Leukemia; type: cell-based; conditions: Homo sapiens, K562
[9] = test system: SK-MEL-5; assay: NCI60 screen (SRB), Melanoma; type: cell-based; conditions: Homo sapiens
[10] = test system: UO-31; assay: NCI60 screen (SRB), Renal cancer; type: cell-based; conditions: Homo sapiens
[11] = test system: TK-10; assay: NCI60 screen (SRB), Renal cancer; type: cell-based; conditions: Homo sapiens
[12] = test system: SNB-19; assay: NCI60 screen (SRB), CNS Cancer; type: cell-based; conditions: Homo sapiens
[13] = test system: NCI-H552; assay: NCI60 screen (SRB), Non-Small Cell Lung Cancer; type: cell-based
[14] = test system: HOP-62; assay: NCI60 screen (SRB), Non-Small Cell Lung Cancer; type: cell-based; conditions: Homo sapiens
[15] = test system: NCI-H460; assay: NCI60 screen (SRB), Non-Small Cell Lung Cancer; type: cell-based; conditions: Homo sapiens
[16] = test system: A549/ATCC; assay: NCI60 screen (SRB), Non-Small Cell Lung Cancer; type: cell-based; conditions: Homo sapiens
[17] = test system: NCI-H23; assay: NCI60 screen (SRB), Non-Small Cell Lung Cancer; type: cell-based; conditions: Homo sapiens
[18] = test system: Hs578Ts(i)8 cells; assay: Antiproliferative activity in invasive Hs578Ts(i)8 cells; type: cell-based
[19] = test system: Hs578T breast cancer cell line; assay: Antiproliferative activity in Hs578T cells; type: cell-based; conditions: Homo sapiens, Hs-578T

Question: For C=CC1C(=O)N(c2cc(OC)c(OC)c(OC)c2)C1c1ccc(OC)c(OP(=O)(O)O)c1 (stereo not drawn) [Compound 17b, 2-Methoxy-5-(1-(3,4,5-trimethoxyphenyl)-4-oxo-3-vinylazetidin-2-yl)phenyl dihydrogen phosphate], which GI50 ([1]; NCI60 Melanoma cell line LOX IMVI, read-out: GI50) is on record?
Answer: The GI50 was 42.2 nM.

Question: And the GI50 ([2]; NCI60 Ovarian cancer cell line NCI/ADR-RES, read-out: GI50)?
Answer: The GI50 was 37 nM.

Question: And the IC50 ([3]; Homo sapiens, MDA-MB-231, MDA-MB-231, read-out: Antiproliferative Activity IC50)?
Answer: Its IC50 is 49 nM.

Question: And the GI50 ([3]; Homo sapiens, NCI60 Breast cancer cell line MDA-MB-231/ATCC, read-out: GI50)?
Answer: Its GI50 is 48.6 nM.

Question: And the IC50 ([3]; MDA-MB-231, read-out: Antiproliferative Activity IC50)?
Answer: Its IC50 is 48.6 nM.

Question: What about the GI50 ([4]; NCI60 CNS Cancer cell line SF539, read-out: GI50) of the same compound?
Answer: The GI50 was 42 nM.

Question: What about the GI50 ([5]; NCI60 Ovarian cancer cell line SK-OV-3, read-out: GI50) of the same compound?
Answer: The GI50 was 97.7 nM.

Question: What about the GI50 ([6]; NCI60 Renal cancer cell line CAKI-1, read-out: GI50) of the same compound?
Answer: The GI50 was 71.7 nM.

Question: And the GI50 ([7]; NCI60 Renal cancer cell line SN12C, read-out: GI50)?
Answer: Its GI50 is 146 nM.

Question: What about the GI50 ([8]; NCI60 Leukemia cell line K-562, read-out: GI50) of the same compound?
Answer: The GI50 was 41.5 nM.

Question: What about the GI50 ([9]; NCI60 Melanoma cell line SK-MEL-5, read-out: GI50) of the same compound?
Answer: The GI50 was 31.2 nM.

Question: And the GI50 ([10]; NCI60 Renal cancer cell line UO-31, read-out: GI50)?
Answer: Its GI50 is 254 nM.

Question: What about the GI50 ([11]; NCI60 Renal cancer cell line TK-10, read-out: GI50) of the same compound?
Answer: Its GI50 is 11400 nM.

Question: And the GI50 ([12]; NCI60 CNS Cancer cell line SNB-19, read-out: GI50)?
Answer: The GI50 was 459 nM.

Question: How did the GI50 ([1]; LOX IMVI) turn out when C=CC1C(=O)N(c2cc(OC)c(OC)c(OC)c2)C1c1ccc(OC)c(N)c1 (stereo not drawn) [Compound 7t, 4-(3-Amino-4-methoxyphenyl)-1-(3,4,5-trimethoxyphenyl)-3-vinylazetidin-2-one] was run?
Answer: The GI50 was under 10 nM.

Question: And the GI50 ([2]; NCI/ADR-RES)?
Answer: Its GI50 is under 10 nM.

Question: What about the GI50 ([3]; Homo sapiens, MDA-MB-231) of the same compound?
Answer: The GI50 was 41.5 nM.

Question: What about the GI50 [4] of the same compound?
Answer: Its GI50 is under 10 nM.

Question: What about the GI50 ([5]; SK-OV-3) of the same compound?
Answer: Its GI50 is 45.7 nM.

Question: And the GI50 [13]?
Answer: The GI50 was under 10 nM.

Question: And the GI50 ([6]; CAKI-1)?
Answer: The GI50 was 32.9 nM.

Question: And the GI50 [8]?
Answer: The GI50 was 37.2 nM.

Question: And the GI50 [14]?
Answer: Its GI50 is 41.2 nM.

Question: What about the GI50 ([9]; SK-MEL-5) of the same compound?
Answer: Its GI50 is 14.6 nM.

Question: And the GI50 [15]?
Answer: Its GI50 is 35.5 nM.

Question: What about the GI50 [16] of the same compound?
Answer: The GI50 was 39.2 nM.

Question: What about the GI50 ([10]; UO-31) of the same compound?
Answer: The GI50 was 64 nM.

Question: What about the GI50 ([11]; TK-10) of the same compound?
Answer: The GI50 was 26800 nM.

Question: What about the GI50 [17] of the same compound?
Answer: The GI50 was 38.7 nM.

Question: What about the GI50 ([12]; SNB-19) of the same compound?
Answer: Its GI50 is 49 nM.

Question: With C=CC1C(=O)N(c2cc(OC)c(OC)c(OC)c2)C1c1ccc(OC)cc1 (stereo not drawn) [Compound 7h, 4-(4-Methoxyphenyl)-1-(3,4,5-trimethoxyphenyl)-3-vinylazetidin-2-one] as the compound, how does the GI50 ([1]; LOX IMVI) read?
Answer: The GI50 was 41.6 nM.

Question: What about the GI50 ([2]; NCI/ADR-RES) of the same compound?
Answer: The GI50 was 27.2 nM.

Question: What about the IC50 [18] of the same compound?
Answer: Its IC50 is 76 nM.

Question: And the GI50 ([3]; Homo sapiens, MDA-MB-231)?
Answer: The GI50 was 31.7 nM.

Question: And the IC50 ([3]; Homo sapiens, MDA-MB-231, read-out: Antiproliferative Activity IC50, MDA-MB-231)?
Answer: Its IC50 is 31 nM.

Question: What about the IC50 ([3]; read-out: Antiproliferative Activity IC50, MDA-MB-231) of the same compound?
Answer: Its IC50 is 31.7 nM.

Question: What about the IC50 [19] of the same compound?
Answer: The IC50 was 31 nM.

Question: And the GI50 ([5]; SK-OV-3)?
Answer: The GI50 was 28.5 nM.

Question: What about the GI50 [13] of the same compound?
Answer: The GI50 was 20.6 nM.

Question: And the GI50 ([6]; CAKI-1)?
Answer: Its GI50 is 392 nM.

Question: And the GI50 ([7]; SN12C)?
Answer: Its GI50 is 55.2 nM.

Question: And the GI50 [14]?
Answer: Its GI50 is 36.9 nM.

Question: What about the GI50 ([9]; SK-MEL-5) of the same compound?
Answer: Its GI50 is 19.4 nM.

Question: And the GI50 [15]?
Answer: The GI50 was 36 nM.

Question: What about the GI50 [16] of the same compound?
Answer: The GI50 was 41.3 nM.

Question: And the GI50 ([10]; UO-31)?
Answer: Its GI50 is 70.9 nM.

Question: And the GI50 [17]?
Answer: Its GI50 is 24.5 nM.

Question: What about the GI50 ([12]; SNB-19) of the same compound?
Answer: The GI50 was 54.2 nM.
